PubChem BioAssay (NCI)
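Dose response: 5 concentrations. Exposure: 48 h. Format: 96-well plates. Endpoint: linear interpolation; highest concentration if not reached. Abbreviation: GI50, concentration required for 50% inhibition of growth. TGI denotes the concentration required for complete inhibition of growth.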

Key:
Experiment in all cases: NCI anticancer screen, dose series, 48 h
[1] = system: 786-0 renal
[2] = system: A498 renal
[3] = system: A549 NSCLC
[4] = system: ACHN renal
[5] = system: BT-549 breast
[6] = system: CAKI-1 renal
[7] = system: CCRF-CEM leukemia
[8] = system: COLO 205 colon
[9] = system: DU-145 prostate
[10] = system: EKVX NSCLC
[11] = system: HCC-2998 colon
[12] = system: HCT-116 colon
[13] = system: HCT-15 colon
[14] = system: HL-60(TB) leukemia
[15] = system: HOP-62 NSCLC
[16] = system: HOP-92 NSCLC
[17] = system: HS 578T breast
[18] = system: HT29 colon
[19] = system: IGROV1 ovarian
[20] = system: KM12 colon
[21] = system: LOX IMVI melanoma
[22] = system: M14 melanoma
[23] = system: MALME-3M melanoma
[24] = system: MCF7 breast
[25] = system: MDA-MB-231 breast
[26] = system: MDA-MB-435
[27] = system: MOLT-4 leukemia
[28] = system: NCI-H226 lung

## COC(=O)/C(=C\c1c(-c2ccccc2)[nH]c2ccccc12)S(C)(=O)=O
[1]
  GI50: 7.46 µM
  TGI: 23.9 µM
[2]
  GI50: 6.56 µM
  TGI: 21.3 µM
[3]
  GI50: 5.26 µM
  TGI: 98.4 µM
[4]
  GI50: 9.18 µM
  TGI: 23.8 µM
[5]
  GI50: 4.29 µM
  TGI: 78.8 µM
[6]
  GI50: 1.83 µM
  TGI: 82.6 µM
[7]
  GI50: 7.62 µM
  TGI: > 100 µM
[8]
  GI50: 4.39 µM
  TGI: 18.5 µM
[9]
  GI50: 2.48 µM
  TGI: 6.11 µM
[10]
  GI50: 8.92 µM
  TGI: > 100 µM
[11]
  GI50: 8.78 µM
  TGI: 22.4 µM
[12]
  GI50: 4.2 µM
  TGI: 21.4 µM
[13]
  GI50: 2.35 µM
  TGI: 12.1 µM
[14]
  GI50: 3.38 µM
  TGI: 15.1 µM
[15]
  GI50: 10.7 µM
  TGI: 36.7 µM
[16]
  GI50: 6.56 µM
  TGI: 50.2 µM
[17]
  GI50: 3.46 µM
  TGI: > 100 µM
[18]
  GI50: 3.58 µM
  TGI: 46.1 µM
[19]
  GI50: 1.67 µM
  TGI: 9.17 µM
[20]
  GI50: 1.48 µM
  TGI: 4.42 µM
[21]
  GI50: 5.07 µM
  TGI: 17.6 µM
[22]
  GI50: 3.34 µM
  TGI: > 100 µM
[23]
  GI50: 12.2 µM
  TGI: 44.2 µM
[24]
  GI50: 2.92 µM
  TGI: 18.2 µM
[25]
  GI50: 2.39 µM
  TGI: 17.7 µM
[26]
  GI50: 0.671 µM
  TGI: 4.77 µM
[27]
  GI50: 4.72 µM
  TGI: > 100 µM
[28]
  GI50: 4.99 µM
  TGI: 64.5 µM
